Results on 24 molecules are retold here after ChEMBL document CHEMBL1136879, “Studies on novel 2-imidazolidinones and tetrahydropyrimidin-2(1H)-ones as potential TACE inhibitors: design, synthesis, molecular modeling, and preliminary biological evaluation” (Bioorg Med Chem, 2009).

For this assay, the target named is Disintegrin and metalloproteinase domain-containing protein 17 (Homo sapiens) (UniProt P78536). The assay is described as follows: Inhibition of TACE in human THP1 cell lysate at 0.1 uM/L by spectrofluorimetric ELISA relative to control. Conditions: THP-1. It is filed as cell-free. Background: In an ELISA, binding on a coated surface is turned into a signal by an enzyme label.
Chain of Disintegrin and metalloproteinase domain-containing protein 17 (Homo sapiens) (P78536 whole entry, the tested form may be a part): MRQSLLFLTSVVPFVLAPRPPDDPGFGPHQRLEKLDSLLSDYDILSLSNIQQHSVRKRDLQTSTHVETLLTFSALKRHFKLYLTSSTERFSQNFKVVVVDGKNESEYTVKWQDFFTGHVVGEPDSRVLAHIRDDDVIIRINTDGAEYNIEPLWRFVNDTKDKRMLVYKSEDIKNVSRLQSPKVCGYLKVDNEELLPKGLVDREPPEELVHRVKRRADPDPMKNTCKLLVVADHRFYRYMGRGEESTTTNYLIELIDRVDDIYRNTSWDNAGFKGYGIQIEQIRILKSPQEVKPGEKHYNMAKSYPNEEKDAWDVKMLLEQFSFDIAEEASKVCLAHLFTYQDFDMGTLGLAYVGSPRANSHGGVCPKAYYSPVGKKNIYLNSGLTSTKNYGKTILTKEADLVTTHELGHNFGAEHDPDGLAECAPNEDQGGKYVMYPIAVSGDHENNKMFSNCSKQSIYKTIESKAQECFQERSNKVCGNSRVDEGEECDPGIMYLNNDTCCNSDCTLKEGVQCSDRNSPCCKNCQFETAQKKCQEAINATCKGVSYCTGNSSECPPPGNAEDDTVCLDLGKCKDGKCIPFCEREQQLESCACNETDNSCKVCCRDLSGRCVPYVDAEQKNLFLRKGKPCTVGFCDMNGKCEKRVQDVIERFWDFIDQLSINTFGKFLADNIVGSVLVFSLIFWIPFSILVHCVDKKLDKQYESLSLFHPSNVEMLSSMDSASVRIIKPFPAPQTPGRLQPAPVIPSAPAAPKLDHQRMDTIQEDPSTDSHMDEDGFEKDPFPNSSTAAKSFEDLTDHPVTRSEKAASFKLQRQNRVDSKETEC
As usually defined, the inhibition is the percentage by which the read-out fell short of the control. A higher inhibition goes with a response far below the control. The molecule `CC(C(=O)O)N1CCCN(c2ccc(OCc3cc(-c4ccccc4)nc4ccccc34)cc2)C1=O` (centres undefined) came in with an inhibition of 31%. The same measure for `COc1ccc(CSc2ccc(N3CCN(C(C)C(=O)O)C3=O)cc2)cc1` (centres undefined): 40%; for `CC(C(=O)O)N1CCN(c2ccc(OCc3cc(-c4ccccc4)nc4ccccc34)cc2)C1=O` (centres undefined): 30%; for `CCc1cc(COc2ccc(N3CCN(C(C)C(=O)O)C3=O)cc2)c2ccccc2n1` (centres undefined): 49%. Then `CC(C(=O)NO)N1CCCN(c2ccc(OCc3ccccc3)cc2)C1=O` (centres undefined), with 28%; and `CC(C)Cc1cc(COc2ccc(N3CCN(C(C)C(=O)NO)C3=O)cc2)c2ccccc2n1` (centres undefined), with 60%. The molecule `CC(C)Cc1cc(COc2ccc(N3CCN(C(C)C(=O)O)C3=O)cc2)c2ccccc2n1` (centres undefined) yielded an inhibition of 47%. `CC(C(=O)O)N1CCCN(c2ccc(OCc3ccc(-c4ccccc4)cc3)cc2)C1=O` (centres undefined) showed an inhibition of 28%. `CC(C(=O)NO)N1CCN(c2cccc(OCc3ccc([N+](=O)[O-])cc3)c2)C1=O` (centres undefined) registered an inhibition of 40%.

`CCc1cc(COc2ccc(N3CCCN(C(C)C(=O)NO)C3=O)cc2)c2ccccc2n1` (centres undefined): the inhibition stood at 34%. As for `CC(C(=O)O)N1CCN(c2ccc(OCc3ccc(-c4ccccc4)cc3)cc2)C1=O` (centres undefined), the inhibition is 30%.

In turn, `CCc1cc(COc2ccc(N3CCN(C(C)C(=O)NO)C3=O)cc2)c2ccccc2n1` (centres undefined) yielded an inhibition of 62%. In the case of `CC(C(=O)NO)N1CCN(c2ccc(OCc3ccccn3)cc2)C1=O` (centres undefined), the inhibition was found to be 50%.

In turn, `CC(C(=O)NO)N1CCN(c2cccc(OCc3ccccc3)c2)C1=O` (centres undefined) registered an inhibition of 39%. The same measure for `CC(C)Cc1cc(COc2ccc(N3CCCN(C(C)C(=O)O)C3=O)cc2)c2ccccc2n1` (centres undefined): 20%; for `CC(C(=O)O)N1CCN(c2ccc(OCc3ccccn3)cc2)C1=O` (centres undefined): 28%; for `COc1ccc(COc2ccc(N3CCCN(C(C)C(=O)NO)C3=O)cc2)cc1` (centres undefined): 18%.

For `COc1ccc(COc2ccc(N3CCN(C(C)C(=O)NO)C3=O)cc2)cc1` (centres undefined), the inhibition amounted to 38%. The same measure for `CC(C)C[C@H](CC(=O)NO)C(=O)N[C@@H](C)C(=O)N(c1cccc2ccccc12)[C@@H](C)C(=O)NCCN`: 28%. Then `CC(C(=O)NO)N1CCN(c2ccc(OCc3cccc4ccccc34)cc2)C1=O` (centres undefined), with 36%; and `CC(C(=O)O)N1CCCN(c2ccc(OCc3ccccn3)cc2)C1=O` (centres undefined), with 35%; and `COc1ccc(CSc2ccc(N3CCN(C(C)C(=O)NO)C3=O)cc2)cc1` (centres undefined), with 42%. Then `CC(C(=O)NO)N1CCCN(c2ccc(OCc3ccccn3)cc2)C1=O` (centres undefined), with 37%; and `CC(C(=O)NO)N1CCCN(c2ccc(OCc3cccc4ccccc34)cc2)C1=O` (centres undefined), with 40%.
